# Source: PubChem BioAssay (NCI)
#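 Compound exposure: 48 hours, 5 concentrations, 96-well plates. GI50 is the concentration that inhibits growth by half. TGI denotes the concentration required for complete inhibition of growth.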
# Test system: IGROV1 ovarian
# Experiment: NCI-60 cell line screen, 48 h
SMILES,TGI,GI50
Cn1c(=O)c(-c2ccccc2)c(N=[N+]=[N-])c2ccccc21,> 100 µM,
CCC(/C=C/C1OC(=O)C=CC1C)=C\C(C)C/C=C/C(C)=C/C(C)C(=O)C(C)C(O)C(C)C/C(C)=C/C(=O)O (stereo not drawn),16 µM,7.48 pM
CC1(C)N=C(N)N=C(N)N1c1ccc(CCc2ccccc2)cc1,5.28 µM,
CN(C)CCCN1CCC2(CCC(C(C)(C)C)CC2)CC1,9.03 µM,
Cc1[nH]nc(C(F)(F)F)c1N=NN1CCOCC1,22.6 µM,
S=C(S)NCNC(=S)S.[Zn+2],> 100 µM,
CC1(CCOCc2ccccc2)NC(=O)NC1=O (stereo not drawn),> 100 µM,
CC(OC(C)(C)C)[C@H](NC(=O)OCC(Cl)(Cl)Cl)C(=O)O (stereo partly drawn),> 100 µM,
O=C(O)CCC(NC(=O)c1ccc(Nc2nc3cc(C(F)(F)F)ccc3nc2-c2ccccc2)cc1)C(=O)O (stereo not drawn),> 100 µM,
c1ccc(CCNc2ccccn2)nc1,> 100 µM,
NCc1ccccc1-c1c2nc(c(-c3ccccc3CN)c3ccc([nH]3)c(-c3ccccc3CN)c3nc(c(-c4ccccc4CN)c4ccc1[nH]4)C=C3)C=C2,59.4 µM,

# Test system: OVCAR-5 ovarian
# Experiment: NCI-60 cell line screen, 48 h
SMILES,TGI,GI50
Cn1c(=O)c(-c2ccccc2)c(N=[N+]=[N-])c2ccccc21,> 100 µM,
CCC(/C=C/C1OC(=O)C=CC1C)=C\C(C)C/C=C/C(C)=C/C(C)C(=O)C(C)C(O)C(C)C/C(C)=C/C(=O)O (stereo not drawn),15.5 µM,< 1e-06 µM
CC1(C)N=C(N)N=C(N)N1c1ccc(CCc2ccccc2)cc1,> 88.2 µM,
CN(C)CCCN1CCC2(CCC(C(C)(C)C)CC2)CC1,9.08 µM,
Cc1[nH]nc(C(F)(F)F)c1N=NN1CCOCC1,41.7 µM,
S=C(S)NCNC(=S)S.[Zn+2],> 100 µM,
CC1(CCOCc2ccccc2)NC(=O)NC1=O (stereo not drawn),> 100 µM,
O=C(Cn1c[n+](CC(=O)c2ccc(-c3ccccc3)cc2)c2ccccc21)Nc1cccc2cccnc12,2.84 µM,1.5 µM
CC(OC(C)(C)C)[C@H](NC(=O)OCC(Cl)(Cl)Cl)C(=O)O (stereo partly drawn),> 100 µM,
O=C(O)CCC(NC(=O)c1ccc(Nc2nc3cc(C(F)(F)F)ccc3nc2-c2ccccc2)cc1)C(=O)O (stereo not drawn),> 100 µM,
c1ccc(CCNc2ccccn2)nc1,> 100 µM,
NCc1ccccc1-c1c2nc(c(-c3ccccc3CN)c3ccc([nH]3)c(-c3ccccc3CN)c3nc(c(-c4ccccc4CN)c4ccc1[nH]4)C=C3)C=C2,33.8 µM,

# Test system: HOP-62 NSCLC
# Experiment: NCI-60 cell line screen, 48 h
SMILES,TGI,GI50
Cn1c(=O)c(-c2ccccc2)c(N=[N+]=[N-])c2ccccc21,> 100 µM,
CCC(/C=C/C1OC(=O)C=CC1C)=C\C(C)C/C=C/C(C)=C/C(C)C(=O)C(C)C(O)C(C)C/C(C)=C/C(=O)O (stereo not drawn),,23.6 pM
CN(C)CCCN1CCC2(CCC(C(C)(C)C)CC2)CC1,4.91 µM,
Cc1[nH]nc(C(F)(F)F)c1N=NN1CCOCC1,28.5 µM,
S=C(S)NCNC(=S)S.[Zn+2],> 100 µM,
CC1(CCOCc2ccccc2)NC(=O)NC1=O (stereo not drawn),> 100 µM,
CC(OC(C)(C)C)[C@H](NC(=O)OCC(Cl)(Cl)Cl)C(=O)O (stereo partly drawn),> 100 µM,
O=C(O)CCC(NC(=O)c1ccc(Nc2nc3cc(C(F)(F)F)ccc3nc2-c2ccccc2)cc1)C(=O)O (stereo not drawn),> 100 µM,
c1ccc(CCNc2ccccn2)nc1,> 100 µM,
NCc1ccccc1-c1c2nc(c(-c3ccccc3CN)c3ccc([nH]3)c(-c3ccccc3CN)c3nc(c(-c4ccccc4CN)c4ccc1[nH]4)C=C3)C=C2,60.4 µM,

# Test system: SF-268 CNS
# Experiment: NCI-60 cell line screen, 48 h
SMILES,TGI,GI50
Cn1c(=O)c(-c2ccccc2)c(N=[N+]=[N-])c2ccccc21,> 100 µM,
CCC(/C=C/C1OC(=O)C=CC1C)=C\C(C)C/C=C/C(C)=C/C(C)C(=O)C(C)C(O)C(C)C/C(C)=C/C(=O)O (stereo not drawn),7.64 µM,1.89 µM
CC1(C)N=C(N)N=C(N)N1c1ccc(CCc2ccccc2)cc1,> 65 µM,
CN(C)CCCN1CCC2(CCC(C(C)(C)C)CC2)CC1,7.29 µM,
Cc1[nH]nc(C(F)(F)F)c1N=NN1CCOCC1,26.8 µM,
C=C(C)[C@@H]1CC[C@]2(C(=O)NC3CCCCC3)CC[C@]3(C)[C@H](CC[C@@H]4[C@@]5(C)CCCNC(C)(C)[C@@H]5CC[C@]43C)[C@@H]12,26 µM,5.29 µM
S=C(S)NCNC(=S)S.[Zn+2],> 100 µM,
CC1(CCOCc2ccccc2)NC(=O)NC1=O (stereo not drawn),> 100 µM,
CC(OC(C)(C)C)[C@H](NC(=O)OCC(Cl)(Cl)Cl)C(=O)O (stereo partly drawn),> 100 µM,
O=C(O)CCC(NC(=O)c1ccc(Nc2nc3cc(C(F)(F)F)ccc3nc2-c2ccccc2)cc1)C(=O)O (stereo not drawn),> 100 µM,
c1ccc(CCNc2ccccn2)nc1,> 100 µM,
NCc1ccccc1-c1c2nc(c(-c3ccccc3CN)c3ccc([nH]3)c(-c3ccccc3CN)c3nc(c(-c4ccccc4CN)c4ccc1[nH]4)C=C3)C=C2,> 100 µM,

# Test system: HCT-15 colon
# Experiment: NCI-60 cell line screen, 48 h
SMILES,TGI,GI50
Cn1c(=O)c(-c2ccccc2)c(N=[N+]=[N-])c2ccccc21,> 100 µM,
CCC(/C=C/C1OC(=O)C=CC1C)=C\C(C)C/C=C/C(C)=C/C(C)C(=O)C(C)C(O)C(C)C/C(C)=C/C(=O)O (stereo not drawn),,1.72e-06 µM
CC1(C)N=C(N)N=C(N)N1c1ccc(CCc2ccccc2)cc1,> 100 µM,
CN(C)CCCN1CCC2(CCC(C(C)(C)C)CC2)CC1,9.55 µM,
Cc1[nH]nc(C(F)(F)F)c1N=NN1CCOCC1,25.8 µM,
S=C(S)NCNC(=S)S.[Zn+2],> 100 µM,
CC1(CCOCc2ccccc2)NC(=O)NC1=O (stereo not drawn),> 100 µM,
O=C(Cn1c[n+](CC(=O)c2ccc(-c3ccccc3)cc2)c2ccccc21)Nc1cccc2cccnc12,30.9 µM,9.63 µM
CC(OC(C)(C)C)[C@H](NC(=O)OCC(Cl)(Cl)Cl)C(=O)O (stereo partly drawn),> 100 µM,
O=C(O)CCC(NC(=O)c1ccc(Nc2nc3cc(C(F)(F)F)ccc3nc2-c2ccccc2)cc1)C(=O)O (stereo not drawn),> 100 µM,
c1ccc(CCNc2ccccn2)nc1,> 100 µM,
NCc1ccccc1-c1c2nc(c(-c3ccccc3CN)c3ccc([nH]3)c(-c3ccccc3CN)c3nc(c(-c4ccccc4CN)c4ccc1[nH]4)C=C3)C=C2,49.4 µM,
